# Assay results as given in PubChem BioAssay (NCI).
# Several values for one entry are separate records, joined by “and”; a condition that tells them apart may be missing. Equal entries are not always repeated.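 Briefly, cells in 96-well plates were exposed to five compound concentrations for 48 h, and endpoints were estimated by linear interpolation. At the GI50, growth is halved. Definition used: TGI = concentration required for complete inhibition of growth.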
# Columns and labels:
# Assay in all cases: DTP human tumour cell line panel, 48 h
# SNB-19 CNS = test system: SNB-19 CNS
# LOX IMVI melanoma = test system: LOX IMVI melanoma
# SF-539 CNS = test system: SF-539 CNS
# HCC-2998 colon = test system: HCC-2998 colon
# PC-3 prostate = test system: PC-3 prostate
# SF-295 CNS = test system: SF-295 CNS
# HT29 colon = test system: HT29 colon
# UACC-257 melanoma = test system: UACC-257 melanoma
# SK-OV-3 ovarian = test system: SK-OV-3 ovarian
# NCI/ADR-RES ovarian = test system: NCI/ADR-RES ovarian
Structure (SMILES),GI50 (SNB-19 CNS),TGI (SNB-19 CNS),GI50 (LOX IMVI melanoma),TGI (LOX IMVI melanoma),GI50 (SF-539 CNS),TGI (SF-539 CNS),GI50 (HCC-2998 colon),TGI (HCC-2998 colon),GI50 (PC-3 prostate),TGI (PC-3 prostate),GI50 (SF-295 CNS),TGI (SF-295 CNS),GI50 (HT29 colon),TGI (HT29 colon),GI50 (UACC-257 melanoma),TGI (UACC-257 melanoma),GI50 (SK-OV-3 ovarian),TGI (SK-OV-3 ovarian),GI50 (NCI/ADR-RES ovarian),TGI (NCI/ADR-RES ovarian)
CCN(c1ccc(CO)c(Cl)c1)C(C)c1ccc(F)cc1 (stereo not drawn),16 µM,30.5 µM,17.1 µM,32.9 µM,16.5 µM,30.8 µM,16.6 µM,32.8 µM,13.1 µM,26.7 µM,11.5 µM,24.3 µM,15.5 µM,30 µM,2.8 µM,12.8 µM,15.7 µM,29.2 µM,14.5 µM,31.2 µM
NS(=O)(=O)c1ccc(N2Cc3cc(Cl)ccc3OC3=C2C(=O)N(CC2CCCCC2)C3=O)cc1,1.6 µM,3.44 µM,1.01 µM,2.32 µM,1.47 µM,2.82 µM,1.84 µM,3.51 µM,0.519 µM,2.09 µM,1.81 µM,4.03 µM,0.392 µM,1.1 µM,1.54 µM,3 µM,2.07 µM,4.26 µM,1.74 µM,5.05 µM
COC(=O)c1ccc2c(c1)C(NC(C)=O)CCc1cc(OC)c(OC)c(OC)c1-2 (stereo not drawn),,> 86.9 µM,,> 96.5 µM,,0.056 µM,,0.706 µM,,> 36.9 µM,,3.03 µM,,1.28 µM,,> 100 µM,,13.9 µM,,3.71 µM
Clc1ccc(COC(Cn2ccnc2)c2ccc(Cl)cc2Cl)cc1 (stereo not drawn),3.35 µM,17.9 µM and 32.3 µM and 30.5 µM,0.533 µM,,4.6 µM,16.4 µM and 38.3 µM and 29.4 µM,2.72 µM,10.5 µM and 29.6 µM and 30 µM,1.8 µM,8.78 µM and 23.4 µM and 21.9 µM,1.9 µM,8.99 µM and 24 µM and 23.6 µM,1.95 µM,5.22 µM and 22.4 µM and 21.5 µM,2.63 µM,9.14 µM and 27.7 µM and 22.5 µM,4.24 µM,14.8 µM and 26.8 µM and 35.2 µM,0.787 µM,7.56 µM and 23.3 µM and 24.9 µM
CCc1nc(N)nc(N)c1-c1ccc([N+](=O)[O-])c(NCc2ccccc2)c1,,38.9 µM,,45.4 µM,,39.3 µM,,36.7 µM,,39.9 µM,,28.4 µM,,23.2 µM,,30.9 µM,,> 55.1 µM,,38.2 µM
COc1cc(-c2oc3ccccc3c(=O)c2O)cc(OC)c1OC,,> 100 µM,,> 100 µM,,> 100 µM,,> 100 µM,,> 100 µM,,> 100 µM,,> 100 µM,,> 100 µM,,> 100 µM,,> 100 µM
N#CC(C#N)SCc1ccccc1,,> 100 µM,,> 19.8 µM,,13.1 µM,,> 100 µM,,> 100 µM,,> 100 µM,,62.8 µM,,> 100 µM,,> 49 µM,,> 100 µM
S=C(N/N=C/c1cc(Cl)cc(Cl)c1)NC12CC3CC(CC(C3)C1)C2,5.99 µM,> 100 µM,6.09 µM,> 100 µM,8.85 µM,> 100 µM,> 100 µM,> 100 µM,> 30.2 µM,> 100 µM,3.92 µM,> 24.5 µM,> 58.3 µM,> 100 µM,> 22.7 µM,> 100 µM,5.06 µM,> 46 µM,7.2 µM,> 100 µM
COc1ccc(-c2cc(-c3ccc(Cl)cc3)c(C#N)c(=O)n2CCCCC(=O)Nc2ccccc2N)cc1,22.2 µM,> 100 µM,1.16 µM,2.92 µM,19.4 µM,> 100 µM,6.2 µM,79.9 µM,6.18 µM,95.9 µM,2.33 µM,5.96 µM,3.44 µM,> 100 µM,4.48 µM,> 100 µM,11.3 µM,54.3 µM,4.09 µM,> 100 µM
N/C(=N\OC(=O)c1ccccc1)C(C(=O)NOC(=O)c1ccccc1)C1CCCCC1 (stereo not drawn),15.4 µM,39.1 µM,0.343 µM,1.38 µM,7.22 µM,20.1 µM,13.5 µM,27.2 µM,6.33 µM,20.5 µM,2.11 µM,5.73 µM,16.1 µM,35.2 µM,13.7 µM,28.7 µM,15.8 µM,29.7 µM,3.79 µM,16 µM
Cc1ccc(C(=O)/C(=C/c2ccc([N+](=O)[O-])cc2)S(=O)Cc2ccccc2)cc1 (stereo not drawn),1.55 µM,3.07 µM,0.417 µM,1.67 µM,1.69 µM,3.1 µM,1.78 µM,3.29 µM,1.35 µM,2.95 µM,2.45 µM,5.96 µM,1 µM,2.44 µM,1.65 µM,3.08 µM,3.46 µM,12.5 µM,2.46 µM,> 100 µM
Cc1cc2c(cc1C)NC1=C(N2)OC(c2c[nH]c3ccc(COc4ccccc4)cc23)C1=O (stereo not drawn),,> 100 µM,,> 100 µM,,95.3 µM,,98.5 µM,,> 100 µM,,> 100 µM,,> 100 µM,,> 100 µM,,> 100 µM,,> 100 µM
Nc1c(C(=O)Nc2ccc([As](=O)(O)O)cc2)cnc2nnnn12,,> 100 µM,,> 100 µM,,> 100 µM,,> 100 µM,,> 100 µM,,> 100 µM,,> 100 µM,,> 100 µM,,> 100 µM,,> 100 µM
CC(C)n1c(/C=C/[C@@H](O)C[C@@H](O)CC(=O)O)c(-c2ccc(F)cc2)c2ccccc21,4.23 µM and 1.32 µM,> 100 µM,0.465 µM and 0.653 µM,> 40.1 µM and 5.62 µM,25.7 µM and 10.5 µM,> 100 µM,10.4 µM and 28.4 µM,> 100 µM,0.371 µM and 0.65 µM,> 100 µM,0.361 µM and 0.429 µM,,12.8 µM and 15.6 µM,> 100 µM,52.7 µM and 47.5 µM,> 100 µM,19.8 µM and > 51.3 µM,> 100 µM,0.554 µM and 0.845 µM,> 100 µM
